Laboratory results from paper PMC9571063 (Molecules, 2022).

Legend:
Test in all cases: KINOMEscan
Type in all cases: binding
Conditions in all cases: read-out: Percent Control
ACVRL1 = target: T1, ACVRL1 (Homo sapiens, UniProt P37023)
T1 construct: purchased Eurofins DiscoverX KINOMEscan (scanMAX 468)

PFPK5(P.falciparum) = target: T2, PFPK5(P.falciparum) (Plasmodium falciparum, UniProt P61075)
T2 construct: purchased Eurofins DiscoverX KINOMEscan (scanMAX 468)

PIK3CG = target: T3, PIK3CG (Homo sapiens, UniProt P48736)
T3 construct: purchased Eurofins DiscoverX KINOMEscan (scanMAX 468)

MYO3B = target: T4, MYO3B (Homo sapiens, UniProt Q8WXR4)
T4 construct: purchased Eurofins DiscoverX KINOMEscan (scanMAX 468)

TIE1 = target: T5, TIE1 (Homo sapiens, UniProt P35590)
T5 construct: purchased Eurofins DiscoverX KINOMEscan (scanMAX 468)

[1] = target: T6, ABL1(T315I)-phosphorylated (Homo sapiens, UniProt P00519, T315I)
T6 construct: purchased Eurofins DiscoverX KINOMEscan (scanMAX 468)

CSNK2A1 = target: T7, CSNK2A1 (Homo sapiens, UniProt P68400)
T7 construct: purchased Eurofins DiscoverX KINOMEscan (scanMAX 468)

NEK11 = target: T8, NEK11 (Homo sapiens, UniProt Q8NG66)
T8 construct: purchased Eurofins DiscoverX KINOMEscan (scanMAX 468)

FLT3(R834Q) = target: T9, FLT3(R834Q) (Homo sapiens, UniProt P36888, R834Q)
T9 construct: purchased Eurofins DiscoverX KINOMEscan (scanMAX 468)

MAP4K2 = target: T10, MAP4K2 (Homo sapiens, UniProt Q12851)
T10 construct: purchased Eurofins DiscoverX KINOMEscan (scanMAX 468)

EPHB4 = target: T11, EPHB4 (Homo sapiens, UniProt P54760)
T11 construct: purchased Eurofins DiscoverX KINOMEscan (scanMAX 468)

STK33 = target: T12, STK33 (Homo sapiens, UniProt Q9BYT3)
T12 construct: purchased Eurofins DiscoverX KINOMEscan (scanMAX 468)

ACVR2A = target: T13, ACVR2A (Homo sapiens, UniProt P27037)
T13 construct: purchased Eurofins DiscoverX KINOMEscan (scanMAX 468)
T13 sequence (P27037 20-513): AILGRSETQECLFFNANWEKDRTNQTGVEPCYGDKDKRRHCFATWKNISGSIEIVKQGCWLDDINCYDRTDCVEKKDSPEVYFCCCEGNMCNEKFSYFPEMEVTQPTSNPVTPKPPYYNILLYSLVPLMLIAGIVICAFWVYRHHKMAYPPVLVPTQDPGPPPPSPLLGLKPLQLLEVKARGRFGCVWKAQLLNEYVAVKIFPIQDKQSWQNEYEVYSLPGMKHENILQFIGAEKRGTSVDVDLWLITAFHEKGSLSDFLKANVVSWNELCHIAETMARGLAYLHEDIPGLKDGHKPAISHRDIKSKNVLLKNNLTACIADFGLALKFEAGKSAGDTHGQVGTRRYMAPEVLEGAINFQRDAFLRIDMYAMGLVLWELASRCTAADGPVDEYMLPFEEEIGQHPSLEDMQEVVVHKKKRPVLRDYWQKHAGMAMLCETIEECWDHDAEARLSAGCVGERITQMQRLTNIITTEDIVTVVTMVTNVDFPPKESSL

[2] = target: T14, RSK2(Kin.Dom.2-C-terminal) (Homo sapiens, UniProt P51812)
T14 construct: RSK2(Kin.Dom.2-C-terminal); purchased Eurofins DiscoverX KINOMEscan (scanMAX 468)
T14 sequence (P51812 398-740 limits assumed): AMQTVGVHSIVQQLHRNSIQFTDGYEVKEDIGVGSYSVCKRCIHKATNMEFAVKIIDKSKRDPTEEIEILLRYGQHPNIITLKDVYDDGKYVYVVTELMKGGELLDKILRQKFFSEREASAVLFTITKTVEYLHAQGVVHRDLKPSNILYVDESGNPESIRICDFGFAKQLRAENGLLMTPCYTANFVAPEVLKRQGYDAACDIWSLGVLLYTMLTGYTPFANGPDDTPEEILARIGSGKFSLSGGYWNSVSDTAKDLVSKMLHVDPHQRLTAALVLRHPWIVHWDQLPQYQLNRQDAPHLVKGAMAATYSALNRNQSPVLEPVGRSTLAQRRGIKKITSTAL

CAMK1 = target: T15, CAMK1 (Homo sapiens, UniProt Q14012)
T15 construct: purchased Eurofins DiscoverX KINOMEscan (scanMAX 468)

PFCDPK1(P.falciparum) = target: T16, PFCDPK1(P.falciparum) (Plasmodium falciparum, UniProt P62344)
T16 construct: purchased Eurofins DiscoverX KINOMEscan (scanMAX 468)

AKT1 = target: T17, AKT1 (Homo sapiens, UniProt P31749)
T17 construct: purchased Eurofins DiscoverX KINOMEscan (scanMAX 468)
T17 sequence (P31749 whole entry): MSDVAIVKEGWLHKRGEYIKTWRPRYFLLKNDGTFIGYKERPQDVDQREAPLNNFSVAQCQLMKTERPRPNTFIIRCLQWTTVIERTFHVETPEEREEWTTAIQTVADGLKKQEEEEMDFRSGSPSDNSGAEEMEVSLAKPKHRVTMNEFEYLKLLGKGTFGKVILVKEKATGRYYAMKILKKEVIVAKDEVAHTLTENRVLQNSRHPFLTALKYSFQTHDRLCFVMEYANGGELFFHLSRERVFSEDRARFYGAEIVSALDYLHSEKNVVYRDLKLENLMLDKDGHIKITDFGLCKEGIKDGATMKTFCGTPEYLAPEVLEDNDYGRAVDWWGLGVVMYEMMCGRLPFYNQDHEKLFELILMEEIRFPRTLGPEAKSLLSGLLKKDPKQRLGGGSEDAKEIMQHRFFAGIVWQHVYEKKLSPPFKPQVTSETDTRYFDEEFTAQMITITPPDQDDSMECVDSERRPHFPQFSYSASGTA

PRKX = target: T18, PRKX (Homo sapiens, UniProt P51817)
T18 construct: purchased Eurofins DiscoverX KINOMEscan (scanMAX 468)

PIK4CB = target: T19, PIK4CB (Homo sapiens, UniProt Q9UBF8)
T19 construct: purchased Eurofins DiscoverX KINOMEscan (scanMAX 468)

BMPR1A = target: T20, BMPR1A (Homo sapiens, UniProt P36894)
T20 construct: purchased Eurofins DiscoverX KINOMEscan (scanMAX 468)

TAOK3 = target: T21, TAOK3 (Homo sapiens, UniProt Q9H2K8)
T21 construct: purchased Eurofins DiscoverX KINOMEscan (scanMAX 468)
T21 sequence (Q9H2K8 whole entry): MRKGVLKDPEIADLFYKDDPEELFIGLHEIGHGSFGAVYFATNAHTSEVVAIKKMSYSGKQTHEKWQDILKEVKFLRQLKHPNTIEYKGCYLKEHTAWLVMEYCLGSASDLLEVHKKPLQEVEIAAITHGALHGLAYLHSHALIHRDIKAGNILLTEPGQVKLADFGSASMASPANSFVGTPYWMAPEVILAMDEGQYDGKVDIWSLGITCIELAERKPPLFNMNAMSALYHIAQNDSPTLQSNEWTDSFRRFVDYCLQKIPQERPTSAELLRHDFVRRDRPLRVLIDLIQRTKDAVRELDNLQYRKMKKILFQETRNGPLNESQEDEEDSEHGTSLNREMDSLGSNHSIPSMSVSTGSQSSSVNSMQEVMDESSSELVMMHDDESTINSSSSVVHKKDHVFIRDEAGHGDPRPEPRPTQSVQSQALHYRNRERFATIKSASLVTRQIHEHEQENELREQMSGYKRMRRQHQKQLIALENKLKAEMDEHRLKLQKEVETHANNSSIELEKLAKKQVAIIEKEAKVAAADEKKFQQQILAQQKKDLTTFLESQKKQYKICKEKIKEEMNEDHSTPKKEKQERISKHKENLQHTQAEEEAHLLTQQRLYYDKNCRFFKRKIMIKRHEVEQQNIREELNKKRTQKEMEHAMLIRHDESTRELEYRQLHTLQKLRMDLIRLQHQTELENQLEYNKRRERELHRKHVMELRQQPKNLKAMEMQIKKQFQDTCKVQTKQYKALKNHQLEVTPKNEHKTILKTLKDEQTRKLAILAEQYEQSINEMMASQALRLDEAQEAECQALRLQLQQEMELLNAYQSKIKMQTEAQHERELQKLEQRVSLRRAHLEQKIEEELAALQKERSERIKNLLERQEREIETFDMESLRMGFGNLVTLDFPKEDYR

RET(V804L) = target: T22, RET(V804L) (Homo sapiens, UniProt P07949, V804L)
T22 construct: purchased Eurofins DiscoverX KINOMEscan (scanMAX 468)

[3] = target: T23, RPS6KA5(Kin.Dom.2-C-terminal) (Homo sapiens, UniProt O75582)
T23 construct: RPS6KA5(Kin.Dom.2-C-terminal); purchased Eurofins DiscoverX KINOMEscan (scanMAX 468)

CSF1R-autoinhibited = target: T24, CSF1R-autoinhibited (Homo sapiens, UniProt P07333)
T24 construct: purchased Eurofins DiscoverX KINOMEscan (scanMAX 468)

PKAC-beta = target: T25, PKAC-beta (Homo sapiens, UniProt P22694)
T25 construct: purchased Eurofins DiscoverX KINOMEscan (scanMAX 468)

TXK = target: T26, TXK (Homo sapiens, UniProt P42681)
T26 construct: purchased Eurofins DiscoverX KINOMEscan (scanMAX 468)

SNRK = target: T27, SNRK (Homo sapiens, UniProt Q9NRH2)
T27 construct: purchased Eurofins DiscoverX KINOMEscan (scanMAX 468)
T27 sequence (Q9NRH2 whole entry): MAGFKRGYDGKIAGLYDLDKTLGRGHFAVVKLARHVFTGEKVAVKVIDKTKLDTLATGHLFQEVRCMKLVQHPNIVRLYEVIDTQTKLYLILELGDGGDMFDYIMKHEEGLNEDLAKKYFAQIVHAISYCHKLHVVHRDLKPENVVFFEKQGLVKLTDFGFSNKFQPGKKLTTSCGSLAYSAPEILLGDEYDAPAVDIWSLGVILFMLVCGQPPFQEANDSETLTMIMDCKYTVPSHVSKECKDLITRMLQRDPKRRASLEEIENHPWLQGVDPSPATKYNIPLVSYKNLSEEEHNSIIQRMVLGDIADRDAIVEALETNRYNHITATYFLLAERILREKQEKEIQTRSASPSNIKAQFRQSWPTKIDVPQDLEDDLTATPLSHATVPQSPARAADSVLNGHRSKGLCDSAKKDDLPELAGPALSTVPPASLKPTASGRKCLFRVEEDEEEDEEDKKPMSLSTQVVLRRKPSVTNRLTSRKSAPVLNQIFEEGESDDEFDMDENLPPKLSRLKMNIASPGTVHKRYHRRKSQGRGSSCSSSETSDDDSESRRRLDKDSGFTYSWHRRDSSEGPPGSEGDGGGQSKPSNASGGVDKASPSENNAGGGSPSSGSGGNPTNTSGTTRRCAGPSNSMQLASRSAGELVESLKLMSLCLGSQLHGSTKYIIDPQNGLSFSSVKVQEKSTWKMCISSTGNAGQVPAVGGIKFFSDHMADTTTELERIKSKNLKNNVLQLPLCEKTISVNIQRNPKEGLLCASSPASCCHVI

IRAK4 = target: T28, IRAK4 (Homo sapiens, UniProt Q9NWZ3)
T28 construct: purchased Eurofins DiscoverX KINOMEscan (scanMAX 468)

WEE1 = target: T29, WEE1 (Homo sapiens, UniProt P30291)
T29 construct: purchased Eurofins DiscoverX KINOMEscan (scanMAX 468)

NEK9 = target: T30, NEK9 (Homo sapiens, UniProt Q8TD19)
T30 construct: purchased Eurofins DiscoverX KINOMEscan (scanMAX 468)

AKT3 = target: T31, AKT3 (Homo sapiens, UniProt Q9Y243)
T31 construct: purchased Eurofins DiscoverX KINOMEscan (scanMAX 468)

MARK3 = target: T32, MARK3 (Homo sapiens, UniProt P27448)
T32 construct: purchased Eurofins DiscoverX KINOMEscan (scanMAX 468)

STK16 = target: T33, STK16 (Homo sapiens, UniProt O75716)
T33 construct: purchased Eurofins DiscoverX KINOMEscan (scanMAX 468)
T33 sequence (O75716 whole entry): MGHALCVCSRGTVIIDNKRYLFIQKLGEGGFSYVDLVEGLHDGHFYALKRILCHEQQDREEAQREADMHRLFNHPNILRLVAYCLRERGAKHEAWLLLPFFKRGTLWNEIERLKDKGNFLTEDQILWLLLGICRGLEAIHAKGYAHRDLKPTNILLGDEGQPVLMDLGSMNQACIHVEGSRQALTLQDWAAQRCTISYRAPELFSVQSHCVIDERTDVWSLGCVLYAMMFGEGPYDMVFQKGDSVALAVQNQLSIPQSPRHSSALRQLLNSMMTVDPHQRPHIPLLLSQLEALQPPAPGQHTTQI

PIM3 = target: T34, PIM3 (Homo sapiens, UniProt Q86V86)
T34 construct: purchased Eurofins DiscoverX KINOMEscan (scanMAX 468)

NEK5 = target: T35, NEK5 (Homo sapiens, UniProt Q6P3R8)
T35 construct: purchased Eurofins DiscoverX KINOMEscan (scanMAX 468)

MARK1 = target: T36, MARK1 (Homo sapiens, UniProt Q9P0L2)
T36 construct: purchased Eurofins DiscoverX KINOMEscan (scanMAX 468)

NDR2 = target: T37, NDR2 (Homo sapiens, UniProt Q9Y2H1)
T37 construct: purchased Eurofins DiscoverX KINOMEscan (scanMAX 468)

[4] = target: T38, JAK1(JH2domain-pseudokinase) (Homo sapiens, UniProt P23458)
T38 construct: JAK1(JH2domain-pseudokinase); purchased Eurofins DiscoverX KINOMEscan (scanMAX 468)
T38 sequence (P23458 561-860 limits assumed): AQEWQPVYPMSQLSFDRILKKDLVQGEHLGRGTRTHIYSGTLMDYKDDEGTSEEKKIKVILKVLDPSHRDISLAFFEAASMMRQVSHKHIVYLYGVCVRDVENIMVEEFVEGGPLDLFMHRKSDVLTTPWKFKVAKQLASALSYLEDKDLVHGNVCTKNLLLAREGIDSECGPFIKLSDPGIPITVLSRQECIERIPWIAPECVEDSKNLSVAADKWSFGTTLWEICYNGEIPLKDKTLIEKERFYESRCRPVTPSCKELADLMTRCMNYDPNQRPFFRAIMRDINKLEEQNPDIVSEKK

SRPK3 = target: T39, SRPK3 (Homo sapiens, UniProt Q9UPE1)
T39 construct: purchased Eurofins DiscoverX KINOMEscan (scanMAX 468)

PRKD3 = target: T40, PRKD3 (Homo sapiens, UniProt O94806)
T40 construct: purchased Eurofins DiscoverX KINOMEscan (scanMAX 468)

SGK3 = target: T41, SGK3 (Homo sapiens, UniProt Q96BR1)
T41 construct: purchased Eurofins DiscoverX KINOMEscan (scanMAX 468)
T41 sequence (Q96BR1 whole entry): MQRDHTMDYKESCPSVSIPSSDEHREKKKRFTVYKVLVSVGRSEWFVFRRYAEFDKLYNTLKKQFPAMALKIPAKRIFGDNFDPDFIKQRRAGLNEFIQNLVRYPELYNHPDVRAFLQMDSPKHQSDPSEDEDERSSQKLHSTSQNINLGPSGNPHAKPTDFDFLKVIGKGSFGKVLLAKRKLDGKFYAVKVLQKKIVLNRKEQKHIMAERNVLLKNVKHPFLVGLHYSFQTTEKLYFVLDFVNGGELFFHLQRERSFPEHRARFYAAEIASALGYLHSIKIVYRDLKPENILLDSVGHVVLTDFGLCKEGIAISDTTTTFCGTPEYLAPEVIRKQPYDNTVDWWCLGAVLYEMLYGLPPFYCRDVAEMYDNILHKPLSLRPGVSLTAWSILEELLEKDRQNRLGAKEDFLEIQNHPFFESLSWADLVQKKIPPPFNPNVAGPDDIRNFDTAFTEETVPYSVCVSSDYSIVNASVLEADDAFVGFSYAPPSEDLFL

BMX = target: T42, BMX (Homo sapiens, UniProt P51813)
T42 construct: purchased Eurofins DiscoverX KINOMEscan (scanMAX 468)

T1 sequence (P37023 22-503): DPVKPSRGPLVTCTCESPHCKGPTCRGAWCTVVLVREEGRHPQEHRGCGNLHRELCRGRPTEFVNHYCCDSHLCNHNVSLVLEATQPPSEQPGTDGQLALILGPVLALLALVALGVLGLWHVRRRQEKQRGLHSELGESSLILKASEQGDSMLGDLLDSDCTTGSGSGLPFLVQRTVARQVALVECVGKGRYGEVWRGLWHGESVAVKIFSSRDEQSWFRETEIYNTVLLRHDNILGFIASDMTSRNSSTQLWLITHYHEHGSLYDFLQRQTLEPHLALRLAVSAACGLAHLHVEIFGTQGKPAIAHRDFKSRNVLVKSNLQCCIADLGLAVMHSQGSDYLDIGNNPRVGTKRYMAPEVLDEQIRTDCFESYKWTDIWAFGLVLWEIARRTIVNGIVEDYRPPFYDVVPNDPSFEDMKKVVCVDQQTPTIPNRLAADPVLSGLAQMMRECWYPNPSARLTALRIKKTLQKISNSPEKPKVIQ
T2 sequence (P61075 whole entry): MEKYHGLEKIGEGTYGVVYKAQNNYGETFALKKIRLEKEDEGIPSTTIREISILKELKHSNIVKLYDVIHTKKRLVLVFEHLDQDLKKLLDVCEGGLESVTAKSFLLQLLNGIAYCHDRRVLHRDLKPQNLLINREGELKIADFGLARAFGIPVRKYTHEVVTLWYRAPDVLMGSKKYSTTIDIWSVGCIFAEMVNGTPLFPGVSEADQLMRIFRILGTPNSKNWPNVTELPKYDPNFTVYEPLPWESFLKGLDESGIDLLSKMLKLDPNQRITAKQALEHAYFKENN

Cc1ccc(-n2cc(COc3cccc4cnc(Nc5cccc(Cl)c5)nc34)nn2)c([N+](=O)[O-])c1 [DB18]
remaining binding at 1 µM (ACVRL1): 93%
remaining binding at 1 µM (PFPK5(P.falciparum)): 100%
remaining binding at 1 µM (PIK3CG): 62%
remaining binding at 1 µM (MYO3B): 84%
remaining binding at 1 µM (TIE1): 100%
remaining binding at 1 µM [1]: 100%
remaining binding at 1 µM (CSNK2A1): 75%
remaining binding at 1 µM (NEK11): 100%
remaining binding at 1 µM (FLT3(R834Q)): 87%
remaining binding at 1 µM (MAP4K2): 100%
remaining binding at 1 µM (EPHB4): 100%
remaining binding at 1 µM (STK33): 100%
remaining binding at 1 µM (ACVR2A): 100%
remaining binding at 1 µM [2]: 100%
remaining binding at 1 µM (CAMK1): 100%
remaining binding at 1 µM (PFCDPK1(P.falciparum)): 100%
remaining binding at 1 µM (AKT1): 87%
remaining binding at 1 µM (PRKX): 97%
remaining binding at 1 µM (PIK4CB): 94%
remaining binding at 1 µM (BMPR1A): 68%
remaining binding at 1 µM (TAOK3): 100%
remaining binding at 1 µM (RET(V804L)): 100%
remaining binding at 1 µM [3]: 100%
remaining binding at 1 µM (CSF1R-autoinhibited): 71%
remaining binding at 1 µM (PKAC-beta): 100%
remaining binding at 1 µM (TXK): 96%
remaining binding at 1 µM (SNRK): 100%
remaining binding at 1 µM (IRAK4): 100%
remaining binding at 1 µM (WEE1): 100%
remaining binding at 1 µM (NEK9): 100%
remaining binding at 1 µM (AKT3): 100%
remaining binding at 1 µM (MARK3): 100%
remaining binding at 1 µM (STK16): 41%
remaining binding at 1 µM (PIM3): 100%
remaining binding at 1 µM (NEK5): 100%
remaining binding at 1 µM (MARK1): 99%
remaining binding at 1 µM (NDR2): 95%
remaining binding at 1 µM [4]: 100%
remaining binding at 1 µM (SRPK3): 100%
remaining binding at 1 µM (PRKD3): 100%
remaining binding at 1 µM (SGK3): 100%
remaining binding at 1 µM (BMX): 100%
